Source: the supplement of paper PMC10011410

How the values were obtained:
[1] = test system: U-2 OS; assay: cell painting activity score (Mahalanobis distance from DMSO wells); higher = stronger morphological phenotype; settings: 24 h
Experimental: (§1)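 Cell painting in U-2 OS cells (384-well, about 1,500 cells per well), compound exposure 24 h, usually six 2-fold concentrations from 20 to 0.625 uM (some compounds higher or lower). Relative cell count is the cell number per well relative to DMSO wells. Activity score is the Mahalanobis distance of the morphological profile from DMSO control wells. Mean of four technical replicate plates.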

[2] = test system: U-2 OS; assay: relative cell count vs DMSO (cell painting) (fraction of DMSO control); higher = more cells remaining (less cytotoxic); settings: 24 h
Experimental: as §1

[3] = test system: U-2 OS; assay: AUC of culture confluence over time (live-cell imaging) (AUC (confluence % x time)); higher = more confluent culture (less growth inhibition)
Experimental: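 Live-cell Incucyte imaging of U-2 OS cells in F-12K medium. Compounds were tested mostly at 5, 10 and 20 uM, and cells were imaged every 4 h for up to 60 h. Value is the area under the curve of phase-contrast confluence over time.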

Row | SMILES | cell painting activity score ([1]; 0.625 µM) | cell painting activity score ([1]; 1.25 µM) | cell painting activity score ([1]; 2.5 µM) | cell painting activity score ([1]; 5 µM) | cell painting activity score ([1]; 10 µM) | cell painting activity score ([1]; 20 µM) | relative cell count ([2]; 0.625 µM) | relative cell count ([2]; 1.25 µM) | relative cell count ([2]; 2.5 µM) | relative cell count ([2]; 5 µM) | relative cell count ([2]; 10 µM) | relative cell count ([2]; 20 µM) | AUC of culture confluence over time ([3]; 5 µM) | AUC of culture confluence over time ([3]; 10 µM) | AUC of culture confluence over time ([3]; 20 µM)
1 | CN(C)/N=N/c1nc[nH]c1C(N)=O | 4.78 | 4.12 | 4.94 | 4.77 | 3.79 | 4.2 | 1 | 0.996 | 0.98 | 0.966 | 1.02 | 1.02 | 43.6 | 42.3 | 45.2
2 | O=C(O)C[C@@H]1C(=O)O[C@H]2[C@@H]3OC(=O)c4cc(O)c(O)c(O)c4-c4c(cc(O)c(O)c4O)C(=O)OC[C@H]2O[C@@H](OC(=O)c2cc(O)c(O)c(O)c2)[C@@H]3OC(=O)c2cc(O)c(O)c3c2[C@H]1[C@H](O)C(=O)O3 | 3.42 | 3.94 | 4.16 | 5.6 | 5.3 | 8.86 | 1.01 | 1 | 1.06 | 1.04 | 1.05 | 1.05 | 45.6 | 45.4 | 41.8
3 | O=C(O)CSc1cc(NS(=O)(=O)c2ccc(Br)cc2)c2ccccc2c1O | 4.65 | 5.25 | 6.44 | 7.75 | 8.94 | 11.1 | 0.954 | 0.952 | 0.961 | 0.926 | 0.881 | 0.694 | 44 | 35.2 | 25.1
4 | C[C@@H]1O[C@@H](O[C@H]2[C@H](O[C@H]3CC[C@@]4(C)[C@@H](CC[C@]5(C)[C@@H]4CC=C4[C@@H]6CC(C)(C)CC[C@]6(C(=O)O)CC[C@]45C)[C@]3(C)CO)OC[C@H](O[C@@H]3O[C@H](CO)[C@@H](O)[C@H](O)[C@H]3O)[C@@H]2O)[C@H](O)[C@H](O)[C@H]1O | 4.55 | 9.15 | 31.1 | 31.3 | 33.6 | 35.9 | 0.916 | 0.143 | 0.0325 | 0.0427 | 0.0257 | 0.015 | 14.5 | 16.5 | 13
5 | CC[C@H](C)[C@@H]1NC(=O)CNC(=O)[C@@H]2Cc3c([nH]c4cc(O)ccc34)S(=O)C[C@H](NC(=O)CNC1=O)C(=O)N[C@@H](CC(=O)O)C(=O)N1C[C@H](O)C[C@H]1C(=O)N[C@@H]([C@@H](C)[C@@H](O)CO)C(=O)N2 (stereo not given in full) | 5.47 | 4.77 | 6.25 | 4.42 | 11.2 | 29.1 | 0.979 | 0.941 | 0.975 | 0.992 | 0.958 | 0.862 | 26.4 | 24.6 | 16.3
6 | O=C(O)C1=CC(=C(c2ccc(O)c(C(=O)O)c2)c2ccc(O)c(C(=O)O)c2)C=CC1=O | 3.58 | 3.35 | 3.92 | 4.33 | 5.68 | 5.78 | 0.992 | 0.98 | 0.986 | 0.968 | 0.965 | 0.954 | 54.3 | 48.2 | 54
7 | O=C(O)CCCc1ccc(N(CCCl)CCCl)cc1 | 4.38 | 5.9 | 8 | 10.4 | 10.8 | 12.6 | 0.967 | 0.951 | 0.908 | 0.881 | 0.837 | 0.784 | 50.2 | 44.6 | 36.8
8 | C=C1[C@@H](C)[C@H]2[C@H](Cc3ccccc3)NC(=O)[C@]23OC(=O)/C=C/[C@H](O)CCC[C@@H](C)C/C=C/[C@H]3[C@@H]1O | 9.61 | 11.2 | 9.71 | 10.7 | 12 | 16.1 | 0.968 | 0.954 | 0.865 | 0.715 | 0.722 | 0.667 | 29 | 26.1 | 26.1
9 | O=C(c1ccc(/C=C/c2n[nH]c3ccccc23)cc1)N1CCNCC1 | 9.05 | 12 | 17.9 | 19.2 | 18.8 | 18.8 | 1.02 | 0.914 | 0.649 | 0.572 | 0.532 | 0.526 | 28.9 | 32.6 | 26.8
10 | Nc1nccc2c1ncn2[C@@H]1C=C(CO)[C@@H](O)[C@H]1O | 18.6 | 18.8 | 26.9 | 28 | 26.4 | 26.2 | 0.949 | 0.964 | 0.944 | 0.938 | 0.941 | 0.94 | 36.9 | 32.7 | 34.3
